Source: PubChem BioAssay (NCI)
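Compound exposure: 48 hours, 5 concentrations, 96-well plates. The concentration for 50% growth inhibition is given as GI50. TGI is the concentration that stops growth completely.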

Tests used:
Experiment in all cases: NCI-60 cell line screen, 48 h
KM12 colon = system: KM12 colon
HCT-116 colon = system: HCT-116 colon
SR leukemia = system: SR leukemia
NCI-H522 lung = system: NCI-H522 lung
UO-31 renal = system: UO-31 renal
OVCAR-3 ovarian = system: OVCAR-3 ovarian
OVCAR-5 ovarian = system: OVCAR-5 ovarian
RPMI-8226 leukemia = system: RPMI-8226 leukemia
SNB-19 CNS = system: SNB-19 CNS
K-562 leukemia = system: K-562 leukemia

`O=C(/C=C/c1ccc(C(F)(F)F)cc1)Nc1ccc(C=C2c3ccccc3C(=O)c3ccccc32)cc1` was tested, and the GI50 (KM12 colon) was 2.33 µM, the TGI (KM12 colon) was 40.6 µM and the GI50 (HCT-116 colon) was 4 µM. For the same compound, the TGI (HCT-116 colon) was greater than 100 µM, the GI50 (SR leukemia) was 0.772 µM and the TGI (SR leukemia) was 41.7 µM. It also gave a GI50 (NCI-H522 lung) of 2.36 µM, a TGI (NCI-H522 lung) of 25.4 µM and a GI50 (UO-31 renal) of 8.47 µM. For the same compound, the TGI (UO-31 renal) was greater than 100 µM, the GI50 (OVCAR-3 ovarian) was 3.76 µM and the TGI (OVCAR-3 ovarian) was 18 µM. It also gave a GI50 (OVCAR-5 ovarian) of 43.6 µM, a TGI (OVCAR-5 ovarian) greater than 100 µM and a GI50 (RPMI-8226 leukemia) of 1.15 µM. It also gave a TGI (RPMI-8226 leukemia) of 85.9 µM, a GI50 (SNB-19 CNS) of 8.61 µM and a TGI (SNB-19 CNS) greater than 100 µM.

`CCc1ccccc1NC(=O)/C=C/c1ccccc1` gave a TGI (KM12 colon) greater than 100 µM, a TGI (HCT-116 colon) greater than 100 µM and a TGI (SR leukemia) greater than 100 µM. The TGI (NCI-H522 lung) was greater than 100 µM, the TGI (OVCAR-3 ovarian) was greater than 100 µM and the TGI (OVCAR-5 ovarian) was greater than 100 µM. The TGI (RPMI-8226 leukemia) was greater than 100 µM, the TGI (K-562 leukemia) was greater than 100 µM and the TGI (SNB-19 CNS) was greater than 100 µM.

For `NS(=O)(=O)c1ccc(N2N=C3c4ccccc4CC3C2c2cccs2)cc1` (stereo unspecified), the GI50 (KM12 colon) was 15.7 µM, the TGI (KM12 colon) was 57.2 µM and the GI50 (HCT-116 colon) was 10.7 µM. For the same compound, the TGI (HCT-116 colon) was 25 µM, the GI50 (NCI-H522 lung) was 39.3 µM and the TGI (NCI-H522 lung) was greater than 100 µM. For the same compound, the GI50 (UO-31 renal) was 39.4 µM, the TGI (UO-31 renal) was greater than 100 µM and the GI50 (OVCAR-3 ovarian) was 24.8 µM. It also gave a TGI (OVCAR-3 ovarian) of 47.8 µM, a GI50 (OVCAR-5 ovarian) of 26.6 µM and a TGI (OVCAR-5 ovarian) greater than 100 µM. It also gave a GI50 (RPMI-8226 leukemia) of 32.3 µM, a TGI (RPMI-8226 leukemia) greater than 100 µM and a GI50 (K-562 leukemia) of 5.75 µM. For the same compound, the TGI (K-562 leukemia) was 81.9 µM, the GI50 (SNB-19 CNS) was 34.4 µM and the TGI (SNB-19 CNS) was greater than 100 µM.

Work on `COC(=O)CCC12CCC(=O)C1[C@@H](C(=O)OC)C[C@H]2C(=O)OC` (stereo partly specified) yielded a TGI (KM12 colon) greater than 100 µM, a TGI (HCT-116 colon) greater than 100 µM and a TGI (NCI-H522 lung) greater than 100 µM. For the same compound, the TGI (UO-31 renal) was greater than 100 µM, the TGI (OVCAR-3 ovarian) was greater than 100 µM and the TGI (OVCAR-5 ovarian) was greater than 100 µM. For the same compound, the TGI (RPMI-8226 leukemia) was greater than 100 µM, the TGI (K-562 leukemia) was greater than 100 µM and the TGI (SNB-19 CNS) was greater than 100 µM.

In the case of `O=[N+]([O-])c1cccc(-c2nc(-c3ccccc3)c(-c3ccccc3)[nH]2)c1`, the TGI (HCT-116 colon) is reported as greater than 100 µM, the TGI (SR leukemia) is reported as greater than 100 µM and the TGI (NCI-H522 lung) is reported as greater than 100 µM. It also gave a TGI (UO-31 renal) greater than 100 µM, a TGI (OVCAR-3 ovarian) greater than 100 µM and a TGI (OVCAR-5 ovarian) greater than 100 µM. For the same compound, the TGI (RPMI-8226 leukemia) was greater than 100 µM, the TGI (K-562 leukemia) was greater than 100 µM and the TGI (SNB-19 CNS) was greater than 100 µM.

Work on `N#C/C(=C\c1cccc(O)c1O)C(N)=O` yielded a TGI (KM12 colon) greater than 100 µM, a TGI (HCT-116 colon) greater than 100 µM and a TGI (NCI-H522 lung) of 58.4 µM. It also gave a TGI (UO-31 renal) of 85.3 µM, a TGI (OVCAR-3 ovarian) greater than 100 µM and a TGI (OVCAR-5 ovarian) greater than 100 µM. It also gave a TGI (RPMI-8226 leukemia) of 65.6 µM, a TGI (K-562 leukemia) greater than 100 µM and a TGI (SNB-19 CNS) greater than 100 µM.

`CN(C)/C=N\c1ccnc(=O)[nH]1` was tested, and the TGI (KM12 colon) was greater than 100 µM, the TGI (HCT-116 colon) was greater than 100 µM and the TGI (NCI-H522 lung) was greater than 100 µM. The TGI (UO-31 renal) was greater than 100 µM, the TGI (OVCAR-3 ovarian) was greater than 100 µM and the TGI (OVCAR-5 ovarian) was greater than 100 µM. For the same compound, the TGI (RPMI-8226 leukemia) was greater than 100 µM and the TGI (K-562 leukemia) was greater than 100 µM.

`CC1(c2cc3c(cc2Br)OCO3)SCCCS1` gave a TGI (KM12 colon) greater than 100 µM, a TGI (HCT-116 colon) greater than 100 µM and a TGI (NCI-H522 lung) of 7.36 µM. It also gave a TGI (UO-31 renal) of 85.1 µM, a TGI (OVCAR-3 ovarian) greater than 100 µM and a TGI (OVCAR-5 ovarian) greater than 100 µM. The TGI (RPMI-8226 leukemia) was 91.6 µM, the TGI (K-562 leukemia) was greater than 100 µM and the TGI (SNB-19 CNS) was greater than 100 µM.

For `COc1ccc(OC(C(=O)O)C(C)C)c2c1CCCC2=O` (stereo unspecified), the TGI (KM12 colon) was greater than 100 µM, the TGI (HCT-116 colon) was greater than 100 µM and the TGI (NCI-H522 lung) was greater than 100 µM. The TGI (UO-31 renal) was greater than 100 µM, the TGI (OVCAR-3 ovarian) was greater than 100 µM and the TGI (OVCAR-5 ovarian) was greater than 100 µM. For the same compound, the TGI (RPMI-8226 leukemia) was greater than 100 µM, the TGI (K-562 leukemia) was greater than 100 µM and the TGI (SNB-19 CNS) was greater than 100 µM.

In the case of `Cc1c2c(cc3c1C(=O)C(=O)C1=C3OC[C@@H]1C)C(C)(C)CCC2`, the TGI (KM12 colon) is reported as 24.7 µM, the TGI (HCT-116 colon) is reported as 26.7 µM and the TGI (SR leukemia) is reported as 50.2 µM. The TGI (UO-31 renal) was 46.1 µM, the TGI (OVCAR-3 ovarian) was 34.9 µM and the TGI (OVCAR-5 ovarian) was 40.2 µM. For the same compound, the TGI (K-562 leukemia) was 34.5 µM and the TGI (SNB-19 CNS) was 49.3 µM.
